A short description of data set [1]: water solubility at 15° C. Type of data set: physicochemical. The following applies: for solubility: water.
Data set [2] has as its system human lymphoblastoid cells (E.B. -3 cells, Burkitt lymphoma). Nature of the data set: inhibiting action on the growth of human lymphoblastoid cells (E.B.-3, Burkitt lymphoma) in suspension culture, cell count. Type of data set: cell-based. Conditions: 100 μg per ml medium, added on the fourth day of cultivation; R.P.M.I. 1640 + 30% fetal calf serum, 37° C; vs non-added culture. The procedure:
Human lymphoblastoid cells (E.B. -3 cells, Burkitt lymphoma) were grown in suspension culture and maintained in 2 ml R.P.M.I. 1640 medium (manufactured by Flow Laboratories Inc., U.S.A.) supplemented with 30% fetal calf serum, placed in Petri's dish, diameter 20 mm at a temperature of 37° C.
The numbers of human lymphoblastoid cells were counted according to the method used for counting the numbers of leucocyte with Burke's blood count platelet.

The mark [3] stands for this setting: 15° C, parts or percentages by weight.

Values after ≈ are worked out from the molar mass of the structure shown.

The text below walks through data of US4067142A, “Echinatin glycosides and their preparation” (Kabushiki Kaisha Hayashibara Seibutsu Kagaku Kenkyujo, priority 1975, dated 1978).

Broadly, the solubility is the concentration that dissolves in the medium under given conditions. In data set [1] (setting [3]), `COc1cc(O[C@@H]2O[C@H](CO)[C@@H](O)[C@H](O)[C@H]2O)ccc1/C=C/C(=O)c1ccc(O[C@@H]2O[C@H](CO)[C@@H](O)[C@H](O)[C@H]2O)cc1` [echinatin-4,4'-diglucoside] showed a solubility of approximately 5000 µg/mL (≈ 8410 µM). On to `COc1cc(O[C@@H]2O[C@H](CO)[C@@H](O)[C@H](O)[C@H]2O)ccc1/C=C/C(=O)c1ccc(O)cc1` [echinatin-4-glucoside], for which, in data set [1] (setting [3]), the solubility was approximately 1000 µg/mL (≈ 2310 µM). `COc1cc(O)ccc1/C=C/C(=O)c1ccc(O)cc1` [echinatin]: in data set [1] (temperature not stated), the “water solubility, in words” value is reported as “extremely low water solubility”. For the same molecule, in data set [1] (setting [3]), the solubility is less than 1 µg/mL.

Take echinatin-4'-glucoside: in data set [2], the “inhibiting action on the growth of human lymphoblastoid cells” value was “possesses an inhibiting action on the growth of human lymphoblastoid cells”. In data set [1] (setting [3]), the water solubility result is “approximately 1%”.
